# Source: ChEMBL document CHEMBL5634133, “Indirubin derivatives as bifunctional molecules inducing DNA damage and targeting PARP for the treatment of cancer” (Eur J Med Chem, 2023)
# Active and inactive are the calls of the source. No cut-off for these calls is given here.
# Assays:
# [1] = system: A549; test: Antiproliferative activity against human A549 cells assessed as combination index incubated for 72 hrs in presence of olaparib by CCK8 assay; assay type: functional
# [2] = system: A549; test: Antiproliferative activity against human A549 cells assessed as inhibition of cell viability incubated for 72 hrs in presence of Niraparib by CCK8 assay; assay type: functional, cell-based; settings: A549, 72 h
# [3] = system: HCT-116; test: Induction of DNA damage in human HCT-116 cells assessed as increase in gammaH2AX protein level at 1 uM incubated for 48 hrs in presence of Olaparib by Western blotting analysis; assay type: functional, cell-based
# [4] = system: NCM460; test: Antiproliferative activity against human NCM460 cells assessed as inhibition of cell viability incubated for 72 hrs in presence of Niraparib by CCK8 assay; assay type: functional, cell-based; settings: NCM460, 72 h
# [5] = system: HCT-116; test: Antiproliferative activity against human HCT-116 cells assessed as combination index incubated for 72 hrs in presence of Niraparib by CCK8 assay; assay type: functional
# [6] = system: MV4-11; test: Antiproliferative activity against human MV4-11 cells assessed as inhibition of cell viability incubated for 72 hrs in presence of Niraparib by CCK8 assay; assay type: functional, cell-based; settings: MV4-11, 72 h
# [7] = system: NCM460; test: Antiproliferative activity against human NCM460 cells assessed as inhibition of cell viability incubated for 72 hrs in presence of olaparib by CCK8 assay; assay type: functional, cell-based; settings: NCM460, 72 h
# [8] = system: HCT-116; test: Antitumor activity against human HCT-116 cells xenografted in BALB/c nude mouse assessed as tumor growth inhibition at 20 mg/kg, ip administered for 14 days relative to control; assay type: functional; settings: Mus musculus, HCT-116, 336 h, time 14 day, read-out: TGI
# [9] = system: A549; test: Antiproliferative activity against human A549 cells assessed as combination index incubated for 72 hrs in presence of Niraparib by CCK8 assay; assay type: functional
# [10] = system: A549; test: Antiproliferative activity against human A549 cells assessed as inhibition of cell viability incubated for 72 hrs in presence of olaparib by CCK8 assay; assay type: functional, cell-based; settings: A549, 72 h
# [11] = system: MV4-11; test: Antiproliferative activity against human MV4-11 cells assessed as combination index incubated for 72 hrs in presence of Niraparib by CCK8 assay; assay type: functional
# [12] = system: MCF7; test: Antiproliferative activity against human MCF7 cells assessed as combination index incubated for 72 hrs in presence of olaparib by CCK8 assay; assay type: functional
# [13] = system: MCF7; test: Antiproliferative activity against human MCF7 cells assessed as inhibition of cell viability incubated for 72 hrs in presence of olaparib by CCK8 assay; assay type: functional, cell-based; settings: MCF7, 72 h
# [14] = system: NCM460; test: Antiproliferative activity against human NCM460 cells assessed as combination index incubated for 72 hrs in presence of olaparib by CCK8 assay; assay type: functional
# [15] = system: MCF7; test: Antiproliferative activity against human MCF7 cells assessed as combination index incubated for 72 hrs in presence of Niraparib by CCK8 assay; assay type: functional
# [16] = system: MV4-11; test: Antiproliferative activity against human MV4-11 cells assessed as combination index incubated for 72 hrs in presence of olaparib by CCK8 assay; assay type: functional
# [17] = system: HCT-116; test: Antitumor activity against human HCT-116 cells xenografted in BALB/c nude mouse assessed as tumor growth inhibition at 20 mg/kg, ip administered for 14 days in presence of Olaparib relative to control; assay type: functional; settings: HCT-116, 336 h, time 14 day, read-out: TGI
# [18] = system: MCF7; test: Antiproliferative activity against human MCF7 cells assessed as inhibition of cell viability incubated for 72 hrs in presence of Niraparib by CCK8 assay; assay type: functional, cell-based; settings: MCF7, 72 h
# [19] = system: MV4-11; test: Antiproliferative activity against human MV4-11 cells assessed as inhibition of cell viability incubated for 72 hrs by CCK8 assay; assay type: functional, cell-based; settings: MV4-11, 72 h
# [20] = system: NCM460; test: Antiproliferative activity against human NCM460 cells assessed as inhibition of cell viability incubated for 72 hrs by CCK8 assay; assay type: functional, cell-based; settings: NCM460, 72 h
# [21] = system: HCT-116; test: Antiproliferative activity against human HCT-116 cells assessed as inhibition of cell viability incubated for 72 hrs in presence of Niraparib by CCK8 assay; assay type: functional, cell-based; settings: HCT-116, 72 h
# [22] = system: HCT-116; test: Antiproliferative activity against human HCT-116 cells assessed as inhibition of cell viability incubated for 72 hrs by CCK8 assay; assay type: functional, cell-based; settings: HCT-116, 72 h
# [23] = system: HCT-116; test: Antiproliferative activity against human HCT-116 cells assessed as combination index incubated for 72 hrs in presence of olaparib by CCK8 assay; assay type: functional
# [24] = system: HCT-116; test: Antiproliferative activity against human HCT-116 cells assessed as inhibition of cell viability incubated for 72 hrs in presence of olaparib by CCK8 assay; assay type: functional, cell-based; settings: HCT-116, 72 h
# [25] = system: MCF7; test: Antiproliferative activity against human MCF7 cells assessed as inhibition of cell viability incubated for 72 hrs by CCK8 assay; assay type: functional, cell-based; settings: MCF7, 72 h
# [26] = system: MV4-11; test: Antiproliferative activity against human MV4-11 cells assessed as inhibition of cell viability incubated for 72 hrs in presence of olaparib by CCK8 assay; assay type: functional, cell-based; settings: MV4-11, 72 h
# [27] = system: NCM460; test: Antiproliferative activity against human NCM460 cells assessed as combination index incubated for 72 hrs in presence of Niraparib by CCK8 assay; assay type: functional
# [28] = system: A549; test: Antiproliferative activity against human A549 cells assessed as inhibition of cell viability incubated for 72 hrs by CCK8 assay; assay type: functional, cell-based; settings: A549, 72 h
smiles,measurement,setting,value
O=C1Nc2ccccc2/C1=C1/Nc2ccccc2/C1=N\O,CI,[1],0.94
same,IC50,[2],4.17 µM
same,Activity,[3],Active
same,IC50,[4],21.1 µM
same,CI,[5],0.67
same,IC50,[6],1.69 µM
same,IC50,[7],20.2 µM
same,inhibition in vivo at 20 mg/kg,[8],47.4%
same,CI,[9],0.84
same,IC50,[10],6.06 µM
same,CI,[11],0.72
same,CI,[12],0.59
same,IC50,[13],2.33 µM
same,CI,[14],0.92
same,CI,[15],0.47
same,CI,[16],0.57
same,inhibition in vivo at 20 mg/kg,[17],64.6%
same,IC50,[18],1.41 µM
same,IC50,[19],6.01 µM
same,IC50,[20],13.1 µM
same,IC50,[21],0.83 µM
same,IC50,[22],3.88 µM
same,CI,[23],0.47
same,IC50,[24],1.37 µM
same,IC50,[25],4.1 µM
same,IC50,[26],2.36 µM
same,CI,[27],1
same,IC50,[28],8.21 µM
